Data from patent US11160871B2, “SSTR-targeted conjugates and particles and formulations thereof” (TARVEDA THERAPEUTICS, INC., priority 2015, dated 2021).
Read-outs that look alike come from different tables or passages of the source.

Legend:
hERG = hERG (Homo sapiens, UniProt Q12809); assay: IonWorks Quattro hERG assay; type: cell-based; conditions: up to 10 uM
[1] = system: NCI-H524 human small cell lung cancer cells; assay: cells; type: cell-based; conditions: NCI-H524 proliferation
Summary of the method: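 NCI-H524 cells (5,000/well) exposed to conjugate for 2 h, washed, then grown 70 h more; competition wells had 100 μM octreotide for 30 min first. Ten-point threefold dilutions from 20 μM. CellTiter Glo luminescence gave % inhibition versus vehicle; four-parameter IC50 fit.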

NCI-H524 cells = assay: PH3 assay of cell-cycle arrest; type: cell-based, human
From the text: Results of a PH3 assay measuring effect on cell-cycle arrest that looks at phospho histone H3 (PH3) increases were shown in FIG. 2B.

NCI-H69 SCLC tumors = assay: NCI-H69 SCLC xenografts, PH3 and CC3 after a single dose; type: in vivo, mice
Experimental: Conjugate 57 was assessed in an in vivo study with NCI-H69 SCLC xenografts model. A single 2 mg/kg dose of Conjugate 57 was administered to mice bearing NCI-H69 SCLC tumors. Levels of cell cycle arrest marker phosphohistone H3 (PH3) were measured at the periphery, middle and core of the tumors. Phosphorylated histone H3 is correlated chromosome condensation during both mitosis and meiosis. […] The biological effects from Conjugate 57 were seen deep in the tumor and distant from blood vessels. Cell death peaks at around 3 days after dosing. […] Conjugates of the present invention can rapidly and deeply penetrate tumor and can exert a prolonged effect on tumor biology.

Plasma pharmacokinetics = type: in vivo; conditions: for Vd: read-out: Vss
Experimental: In this example, plasma pharmacokinetics of Conjugate 57 was studied in mouses, rats and dogs. Half-life, maximum plasma drug concentration (Cmax), drug clearance (CL), area under the curve time curve from time 0 to the last sampling time (AUC 0-t), and apparent volume of distribution at steady state (VSS) were measured.

H69 tumors = assay: PD studies with H69 model, PH3 and CC3 by Western blot and IHC; type: in vivo
Experimental: PD studies were carried out with H69 model to determine the in vivo response of conjugate effects on tumor cells and timing/peak response. Conjugate 57 and Conjugate 57 in nanoparticles (Conjugate 57/NP20) were tested at 2 mg/kg. NP20 formulation has been described in EXAMPLE 2. Western blot and IHC staining were carried out to measure PH3 and CC3 levels.
PH3 is correlated chromosome condensation during both mitosis and meiosis. […] As shown in Western Blot results in FIG. 18A, the peak response for PH3 occurs at 48 hours for both the conjugate and the conjugate in the nanoparticle. […] PH3 level was steady for Conjugate 57/NP20 samples.
CC3 is a marker of apoptosis. It is the executioner of apoptosis and tightly regulated. A peak in activity is seen for both Conjugate 57 and Conjugate 57/NP20 at 72 hours (FIG. 19). The activity of Conjugate 57 is stronger as compared to Conjugate 57/NP20, consistent with the PH3 results.
Cell arrest as indicated by PH3 levels peaked at 48 hr and apoptosis as indicated by CC3 levels peaked at 72 hr.

[2] = system: HCC-33 (small cell lung cancer) xenograft; assay: HCC-33 xenograft, multiple dose regimens (Example 17); type: in vivo
Experimental: HCC-33 (small cell lung cancer) xenograft was chosen to study efficacy of Conjugate 57. In some groups, Conjugate 57 was given at 1.0 mg/kg, 0.5 mg/kg or 0.33 mg/kg every week for 30 days, a total of four doses for each animal. In some other groups, Conjugate 57 was also given at 0.5 mg/kg or 0.25 mg/kg twice a week for 30 days, a total of 8 total doses for each animal.

[3] = system: MCF-7 breast cancer cells; assay: MCF-7 cell proliferation; type: cell-based
Experimental: In an in vitro study, Conjugate 57 is given to MCF-7 breast cancer cells. Cell proliferation of the MCF-7 cells are measured.

[4] = 0.25 mg/kg 2x/wk, 8 total doses
[5] = 0.33 mg/kg every week, four doses
[6] = 0.5 mg/kg every week, four doses
[7] = 1.0 mg/kg every week, four doses

hERG, sequence (Q12809 whole entry): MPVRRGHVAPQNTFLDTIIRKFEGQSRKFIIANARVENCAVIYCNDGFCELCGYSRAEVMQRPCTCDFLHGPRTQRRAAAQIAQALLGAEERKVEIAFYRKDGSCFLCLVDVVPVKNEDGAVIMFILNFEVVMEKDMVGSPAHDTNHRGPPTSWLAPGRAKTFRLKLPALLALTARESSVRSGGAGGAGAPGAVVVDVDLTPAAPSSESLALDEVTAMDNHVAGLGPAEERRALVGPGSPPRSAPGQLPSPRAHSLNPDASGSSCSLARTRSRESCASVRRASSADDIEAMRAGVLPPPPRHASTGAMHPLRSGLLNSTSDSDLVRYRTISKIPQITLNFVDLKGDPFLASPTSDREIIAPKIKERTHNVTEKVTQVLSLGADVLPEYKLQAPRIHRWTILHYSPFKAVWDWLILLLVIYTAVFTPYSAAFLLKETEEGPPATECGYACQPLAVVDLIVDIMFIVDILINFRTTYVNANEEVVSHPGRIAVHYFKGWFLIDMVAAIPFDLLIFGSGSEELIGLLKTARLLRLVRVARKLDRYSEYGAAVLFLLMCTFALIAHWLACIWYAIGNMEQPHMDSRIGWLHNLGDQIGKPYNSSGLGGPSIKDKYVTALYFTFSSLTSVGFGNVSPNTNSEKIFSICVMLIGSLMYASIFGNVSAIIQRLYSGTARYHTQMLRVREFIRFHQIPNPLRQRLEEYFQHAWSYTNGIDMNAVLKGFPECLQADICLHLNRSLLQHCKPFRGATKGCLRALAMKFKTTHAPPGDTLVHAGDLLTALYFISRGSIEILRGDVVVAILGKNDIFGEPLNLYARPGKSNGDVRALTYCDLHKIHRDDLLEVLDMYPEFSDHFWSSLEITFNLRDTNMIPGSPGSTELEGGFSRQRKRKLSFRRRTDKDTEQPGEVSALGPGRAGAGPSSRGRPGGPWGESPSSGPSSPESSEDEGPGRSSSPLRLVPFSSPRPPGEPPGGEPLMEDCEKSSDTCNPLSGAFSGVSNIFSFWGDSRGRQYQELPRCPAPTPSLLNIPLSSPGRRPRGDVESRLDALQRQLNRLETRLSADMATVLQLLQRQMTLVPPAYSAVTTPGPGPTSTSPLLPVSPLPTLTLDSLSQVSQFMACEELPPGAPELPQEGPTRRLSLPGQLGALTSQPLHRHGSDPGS

COc1cc2cc(c1Cl)N(C)C(=O)C[C@H](OC(=O)[C@H](C)N(C)C(=O)CCSSC[C@H](NC(=O)[C@@H]1CSSC[C@H](NC(=O)[C@H](N)Cc3ccccc3)C(=O)N[C@@H](Cc3ccc(O)cc3)C(=O)N[C@H](Cc3c[nH]c4ccccc34)C(=O)N[C@@H](CCCCN)C(=O)N[C@@H]([C@@H](C)O)C(=O)N1)C(N)=O)[C@]1(C)O[C@H]1[C@H](C)[C@@H]1C[C@@](O)(NC(=O)O1)[C@H](OC)/C=C/C=C(\C)C2 [Conjugate 57]
inhibition of hERG (hERG): no inhibition | difference in IC50 with or without octreotide competition [1]: 12.2 fold | shift in PH3 assay on competition with octreotide (NCI-H524 cells): 2.6 fold | PH3 levels at periphery, middle and core of the tumors (NCI-H69 SCLC tumors; single 2 mg/kg dose): Elevated levels of PH3 are seen at all depths of the tumor through 72 h | time of peak cell death (cleaved caspase-3) (NCI-H69 SCLC tumors; single dose of 2 mg/kg): around 3 days | AUC(0-t) (Plasma pharmacokinetics; Dog, 0.1 mg/kg): 619 nM·h | Cmax (Plasma pharmacokinetics; Dog, 0.1 mg/kg): 0.73 µM | clearance (Plasma pharmacokinetics; Dog, 0.1 mg/kg): 0.0834 L/h/kg | half-life (Plasma pharmacokinetics; Dog, 0.1 mg/kg): 2.86 h | Vd (Plasma pharmacokinetics; Dog, 0.1 mg/kg): 0.224 L/kg | AUC(0-t) (Plasma pharmacokinetics; Mouse, 2 mg/kg): 7300 nM·h | Cmax (Plasma pharmacokinetics; Mouse, 2 mg/kg): 5.93 µM | clearance (Plasma pharmacokinetics; Mouse, 2 mg/kg): 0.139 L/h/kg | half-life (Plasma pharmacokinetics; Mouse, 2 mg/kg): 12.2 h | Vd (Plasma pharmacokinetics; Mouse, 2 mg/kg): 0.963 L/kg | AUC(0-t) (Plasma pharmacokinetics; Rat, 1.5 mg/kg): 2770 nM·h | Cmax (Plasma pharmacokinetics; Rat, 1.5 mg/kg): 4.69 µM | clearance (Plasma pharmacokinetics; Rat, 1.5 mg/kg): 0.299 L/h/kg | half-life (Plasma pharmacokinetics; Rat, 1.5 mg/kg): 8.07 h | Vd (Plasma pharmacokinetics; Rat, 1.5 mg/kg): 0.594 L/kg | time of PH3 signal peak, IHC (H69 tumors; 2 mg/kg): 48 h | time of peak in CC3 activity (H69 tumors; 2 mg/kg): 72 h | time of peak response for PH3, Western Blot (H69 tumors; 2 mg/kg): 48 h | time of peak of apoptosis as indicated by CC3 levels (fold change, FIG. 21) (H69 tumors; H69): 72 h | time of peak of cell arrest as indicated by PH3 levels (fold change, FIG. 21) (H69 tumors; H69): 48 h | TGI % Day 4 [2, 4]: −12.5% | TGI % Day 8 [2, 4]: 50.4% | TGI % Day 11 [2, 4]: 67.3% | TGI % Day 15 [2, 4]: 85.8% | TGI % Day 18 [2, 4]: 92.3% | TGI % Day 22 [2, 4]: 95.8% | TGI % Day 25 [2, 4]: 97.2% | TGI % Day 29 [2, 4]: 97.8% | TGI % Day 4 [2, 5]: 2.1% | TGI % Day 8 [2, 5]: 34.2% | TGI % Day 11 [2, 5]: 48% | TGI % Day 15 [2, 5]: 62.4% | TGI % Day 18 [2, 5]: 73.8% | TGI % Day 22 [2, 5]: 79% | TGI % Day 25 [2, 5]: 83.4% | TGI % Day 29 [2, 5]: 78.5% | TGI % Day 4 ([2]; 0.5 mg/kg 2x/wk, 8 total doses): 0.5% | TGI % Day 8 ([2]; 0.5 mg/kg 2x/wk, 8 total doses): 61.6% | TGI % Day 11 ([2]; 0.5 mg/kg 2x/wk, 8 total doses): 78.3% | TGI % Day 15 ([2]; 0.5 mg/kg 2x/wk, 8 total doses): 91.8% | TGI % Day 18 ([2]; 0.5 mg/kg 2x/wk, 8 total doses): 96.2% | TGI % Day 22 ([2]; 0.5 mg/kg 2x/wk, 8 total doses): 97.6% | TGI % Day 25 ([2]; 0.5 mg/kg 2x/wk, 8 total doses): 99.1% | TGI % Day 29 ([2]; 0.5 mg/kg 2x/wk, 8 total doses): 99.2% | TGI % Day 4 [2, 6]: 1.6% | TGI % Day 8 [2, 6]: 60.3% | TGI % Day 11 [2, 6]: 68.8% | TGI % Day 15 [2, 6]: 82.7% | TGI % Day 18 [2, 6]: 87.1% | TGI % Day 22 [2, 6]: 91.1% | TGI % Day 25 [2, 6]: 93.6% | TGI % Day 29 [2, 6]: 89.5% | TGI % Day 4 [2, 7]: 25.8% | TGI % Day 8 [2, 7]: 69.9% | TGI % Day 11 [2, 7]: 84.4% | TGI % Day 15 [2, 7]: 93.6% | TGI % Day 18 [2, 7]: 97.4% | TGI % Day 22 [2, 7]: 99.2% | TGI % Day 25 [2, 7]: 99.8% | TGI % Day 29 [2, 7]: 99.7% | tolerability of multiple doses ([2]; all regimens): well tolerated | proliferation of MCF-7 cells [3]: reduces the proliferation of MCF-7 cells
